# Source: patent publication EP0322748B1, “Antibiotic NK86-0279, process for production of the same and application of the same” (NIPPON KAYAKU KABUSHIKI KAISHA, priority 1987, dated 1989)
# Columns and labels:
# [1] = test system: human colonic cancer cells (SWlll6); experiment: growth-inhibitory effect on human colonic cancer cells, dye exclusion method; type: cell-based
# Protocol: The growth-inhibitory effects of the compound of the present invention on mouse colonic cancer cells (Colon 26) and human colonic cancer cells (SWlll6) were examined. A 96-well plate was inoculated with mouse colonic cancer cells at a ratio of 1.5 x 10³ cells per well, while another 96-well plate was inoculated with human colonic cancer cells at a ratio of 3.0 x 10³ per well. These cells were incubated in an incubator at 37°C under 5 % CO₂ for 24 hours. Then the compound of the present invention was added thereto at various concentrations. Cells in each well were counted by the dye exclusion method 65 hours and 96 hours after the addition to thereby evaluate the growth-inhibitory effect of the test compound on the mouse colonic cancer cells and that on the human colonic cancer cells.
# acute toxicity = conditions: mouse, in vivo, ip; mice
# [2] = test system: cancer of the mouse colon (colon 26); experiment: anti-cancer action against grafted mouse colon cancer, prolongation of life; type: in vivo, BALB/c mouse
# From the text: The anti-cancer action of the compound of the present invention against the cancer of the mouse colon (colon 26) was examined. A cancer debris of mouse colon having an area of 2 mm³ was grafted into a subcutaneous portion of the left body side of a 6 week-old male BALB/c mouse, and the compound of the present invention was intraperitoneally administered to the mouse in various concentrations every day from the next day of the graft once a day for 9 days. The general conditions of the mouse were observed every day after the initiation of the administration. The percentage prolongation of life (T/C) of the mouse with respect to the compound of the present invention was determined from the ratio of the average survival time on the groups of administration of the compound of the present invention relative to that on the control group.
# [3] = test system: two-spotted spider mite acarids (a Kelthane-resistant species); experiment: insecticidal action, mortality rate of spider mites; type: in vivo; conditions: Tetranychus urticae, 48 h, Imagos of two-spotted spider mite, after 2 days
# Protocol: (§1) The insecticidal action of the compound of the present invention was examined by the following method. • (1) An imago of two-spotted spider mite acarids (a Kelthane-resistant species) was used as a test vermin, and the mortality rate thereof was assayed according to an ordinary method (described on page 327 of "Noyaku Seibutsu Kenteiho" edited by Toyoji Hosotsuji). Specifically, a solution of the compound of the present invention in acetone (0.1 %) was added to 0.5 ml of an aqueous sucrose solution (1 %) to have a predetermined concentration. Ten two-spotted spider mite acarids were released in a vessel (200-ml beaker), and the vessel was covered with a paraffin film. The agent solution prepared above was put on the paraffin film, and another praffin film was put thereon. The beaker was allowed to stand in a thermostatic chamber (20 ± 1°C) for a predetermined period of time, and the life and death of the test vermin was investigated. • (2) A larva of mosquito culices (a sensitive species) was used as a test vermin, and the mortality rate thereof was assayed according to an ordinary method (described on page 109 of "Noyaku Jikkenho I, Sacchuzaihen" published by Soft Science, Inc.). Specifically, 10 ml of well water was placed in a vessel (15-ml Schale), and 5 larvae of mosquito culices (the third stage) were released in the vessel. A solution of the compound of the present invention in acetone (0.1 %) was added thereto so as to have a predetermined concentration. The vessel was allowed to stand in a thermostatic chamber (26 ± 1°C) for a predetermined period of time, and the life and death of the test vermin was investigated.
# [4] = test system: mouse lung cancer (lewis lung carcinoma); experiment: anti-cancer action against grafted mouse lung cancer, tumor volume; type: in vivo; conditions: mouse pulmonary cancer
# From the text: The anti-cancer action of the compound of the present invention against mouse lung cancer (lewis lung carcinoma) and mouse breast cancer (Ehrlich B) was examined. 1 x 10⁶ mouse lung cancer cells or mouse breast cancer cells were grafted into a subcutaneous portion of the groin of an eight week-old male BDF₁ or ICR mouse, and the compound of the present invention was intraperitoneally administered to the mouse in various concentrations every day from two days after the graft once a day for 9 days. On the second day after completion of the administration, the minor axis and the major axis of the tumor were measured, and the volume of the tumor was determined by using the following equation: (minor axis)² x […]/2 [formula] . Then, the percentage inhibition of proliferation of each tumor with respect to the compound of the present invention was determined from the ratio of the volume of the tumor on the groups of administration of the compound of the present invention relative to that on the control group.
# [5] = test system: mosquito culices (a sensitive species); experiment: insecticidal action, mortality rate of mosquito larvae; type: in vivo
# Protocol: as §1
# [6] = test system: bovine adrenal capillary endothelial cells; experiment: growth-inhibitory effect on endothelial cells, Coulter counter; type: cell-based; conditions: Bos taurus, Endothelial cell, 72 h, three days after the addition
# Protocol: The growth-inhibitory effect of the compound of the present invention on endothelial cells was examined. A 96-well plate was inoculated with bovine adrenal capillary endothelial cells at a ratio of 1 x 10⁴ cells per well. One day after the inoculation, the compound of the present invention was added thereto at various concentrations. Cells in each well were counted with a Coulter counter three days after the addition to thereby evaluate the growth-inhibitory effect of the test compound on the capillary endothelial cells. […] Thus the IC₅₀ of the compound of the present invention on the endothelial cells was 0.0003 µg/ml, showing a strong growth-inhibitory effect.
# [7] = 0.063 mg/kg intraperitoneally once a day for 9 days
# [8] = 0.125 mg/kg intraperitoneally once a day for 9 days
# [9] = 0.250 mg/kg intraperitoneally once a day for 9 days
# [10] = 0.500 mg/kg intraperitoneally once a day for 9 days
compound,measurement,setting,value
CCC1C=CC=CCC(C)C(O)C(C)(O)C(=O)C(C)C(O)C(C)C(=O)C(C)C(O)C(C)C=CC(=O)OC2C(C)C(CC1)OC1(OC(CC(C)O)C(C)CC1=O)C2CC (centres unmarked) [NK86-0279],inhibition at 0.0061 µg/mL,"[1]; Homo sapiens, SW 1116, SWlll6, 0.0061 µg/ml, read-out: Growth-inhibitory ratio",33.3%
same,inhibition at 0.024 µg/mL,"[1]; Homo sapiens, SW 1116, SWlll6, 0.024 µg/ml, read-out: Growth-inhibitory ratio",51.7%
same,inhibition at 0.098 µg/mL,"[1]; Homo sapiens, SW 1116, SWlll6, 0.098 µg/ml, read-out: Growth-inhibitory ratio",54.6%
same,inhibition at 0.39 µg/mL,"[1]; Homo sapiens, SW 1116, SWlll6, 0.39 µg/ml, read-out: Growth-inhibitory ratio",53.5%
same,inhibition at 1.56 µg/mL,"[1]; Homo sapiens, SW 1116, SWlll6, 1.56 µg/ml, read-out: Growth-inhibitory ratio",52.2%
same,inhibition at 6.25 µg/mL,"[1]; Homo sapiens, SW 1116, SWlll6, 6.25 µg/ml, read-out: Growth-inhibitory ratio",80.8%
same,inhibition at 25 µg/mL,"[1]; Homo sapiens, SW 1116, SWlll6, 25 µg/ml, read-out: Growth-inhibitory ratio",91.9%
same,inhibition at 100 µg/mL,"[1]; Homo sapiens, SW 1116, SWlll6, 100 µg/ml, read-out: Growth-inhibitory ratio",90.7%
same,IC50,"[1]; human colonic cancer cells (SWlll6), read-out: IC₅₀",0.021 µg/mL
same,LD50,acute toxicity,1.67 mg/kg
same,T/C (percentage prolongation of life),[2]; [7],136%
same,T/C (percentage prolongation of life),[2]; [8],130%
same,T/C (percentage prolongation of life),[2]; [9],153%
same,T/C (percentage prolongation of life),[2]; [10],143%
same,mortality at 1 ppm,[3]; 1 ppm,100%
same,mortality at 10 ppm,[3]; 10 ppm,100%
same,mortality at 100 ppm,[3]; 100 ppm,100%
same,Growth-inhibitory ratio (tumor volume),[4]; [7],46.3%
same,Growth-inhibitory ratio (tumor volume),[4]; [8],57.1%
same,Growth-inhibitory ratio (tumor volume),[4]; [9],8.9%
same,Growth-inhibitory ratio (tumor volume),[4]; [10],59.6%
same,mortality at 1 ppm,"[5]; 48 h, after 2 days",0%
same,mortality at 10 ppm,"[5]; 48 h, after 2 days",100%
same,mortality at 1 ppm,"[5]; 144 h, 6 days",0%
same,mortality at 10 ppm,"[5]; 144 h, 6 days",100%
same,mortality at 1 ppm,"[5]; 216 h, 9 days",0%
same,mortality at 10 ppm,"[5]; 216 h, 9 days",100%
same,inhibition at 0.000128 µg/mL,"[6]; 0.000128 µg/ml, read-out: Groth-inhibitory ratio",35.4%
same,inhibition at 0.00064 µg/mL,"[6]; 0.00064 µg/ml, read-out: Groth-inhibitory ratio",63.2%
same,inhibition at 0.0032 µg/mL,"[6]; 0.0032 µg/ml, read-out: Groth-inhibitory ratio",78.4%
same,inhibition at 0.016 µg/mL,"[6]; 0.016 µg/ml, read-out: Groth-inhibitory ratio",89.7%
same,IC50,"[6]; endothelial cells, read-out: IC₅₀",0.0003 µg/mL
